Measurements as given in ChEMBL document CHEMBL6074679, “Diastereoselective synthesis and biological evaluation of new fluorine-containing α-aminophosphonates as anticancer agents and scaffold to human urokinase plasminogen activator inhibitors” (Eur J Med Chem, 2025).

Tests used:
U-87 MG = assay: Cytotoxicity against human U-87 MG cells incubated for 48 hrs by MTT assay; format: functional, cell-based, U-87MG ATCC
U-251 = assay: Cytotoxicity against human U-251MG cells incubated for 48 hrs by MTT assay; format: functional, cell-based; settings: U-251, 48 h
U-118-MG = assay: Cytotoxicity against human U-118 MG cells incubated for 48 hrs by MTT assay; format: functional, cell-based
OVCAR-3 = assay: Cytotoxicity against human OVCAR-3 cells incubated for 48 hrs by MTT assay; format: functional, cell-based; settings: OVCAR-3, 48 h
SK-OV-3 = assay: Cytotoxicity against human SK-OV-3 cells incubated for 48 hrs by MTT assay; format: functional, cell-based; settings: SK-OV-3, 48 h
HepG2 = assay: Cytotoxicity against human HepG2 cells incubated for 48 hrs by MTT assay; format: functional, cell-based; settings: HepG2, 48 h
Caco-2 = assay: Cytotoxicity against human Caco-2 cells incubated for 48 hrs by MTT assay; format: functional, cell-based; settings: Caco-2, 48 h
HeLa = assay: Cytotoxicity against human HeLa cells incubated for 48 hrs by MTT assay; format: functional, cell-based
MDA-MB-231 = assay: Cytotoxicity against human MDA-MB-231 cells incubated for 48 hrs by MTT assay; format: functional, cell-based; settings: MDA-MB-231, 48 h
A549 = assay: Cytotoxicity against human A549 cells incubated for 48 hrs by MTT assay; format: functional, cell-based; settings: A549, 48 h
[1] = Cytotoxicity against human MRC5 cells incubated for 48 hrs by MTT assay; format: toxicity, cell-based
[2] = molecular target: Urokinase-type plasminogen activator (Homo sapiens, UniProt P00749); assay: Inhibition of human urokinase uPA using Z-Gly-Gly-Arg-AMC as substrate by fluorescence plate reader assay

| IC50 [2] [µM] | Structure (SMILES) | IC50 (U-87 MG) [µM] | IC50 (U-251) [µM] | IC50 (U-118-MG) [µM] | IC50 (OVCAR-3) [µM] | IC50 (SK-OV-3) [µM] | IC50 (HepG2) [µM] | IC50 (Caco-2) [µM] | IC50 (HeLa) [µM] | IC50 (MDA-MB-231) [µM] | IC50 (A549) [µM] | IC50 at 48 h [1] [µM] |
| --- | --- | --- | --- | --- | --- | --- | --- | --- | --- | --- | --- | --- |
|  | COP(=O)(OC)C(N[C@@H](C)C(C)(C)C)c1ccc(F)cc1F (stereo not given in full) | 40.7 | 119 | 87.7 | 66.3 | 131 | 59.5 | 6.44 | 9.85 | 165 | 1.82 | 82.2 |
| 114 | COc1ccc([C@@H](C)NC(c2ccccc2F)P(=O)(OC)OC)cc1 (stereo not given in full) | 9.24 | 8.7 | > 500 | 15.7 | 338 | 72.6 | 1.3 | 5.18 | 167 | 43.3 | 29.1 |
|  | CCOP(=O)(OCC)C(N[C@H](C)c1ccccc1)c1ccc(F)cc1F (stereo not given in full) | 7.68 | 5.59 | 34.6 | 5.56 | 3.24 | 117 | 2.24 | 4.11 | 11.6 | 35.4 | 16.6 |
|  | COP(=O)(OC)C(N[C@H](C)c1ccccc1)c1ccc(F)cc1F (stereo not given in full) | 57 | 110 | 67.7 | 2.47 | 17.4 | 47.9 | 8.63 | 5.35 | 170 | 5.45 | 5.24 |
| 516 | COP(=O)(OC)C(N[C@@H](C)C(C)(C)C)c1ccc(F)cc1 (stereo not given in full) | 36.3 | 21 | 38.3 | 81.6 | 6.77 | 6.73 | 18.5 | 6.07 | 190 | 9.82 | 110 |
| 493 | COc1ccc([C@@H](C)NC(c2ccc(F)cc2)P(=O)(OC(C)C)OC(C)C)cc1 (stereo not given in full) | 21.7 | 27 | 18.2 | 44.3 | 8.41 | 7.74 | 6.47 | 3.18 | 33.8 | 37.7 | 5.9 |
|  | O=c1[nH]c(=O)n([C@H]2C[C@H](O)[C@@H](CO)O2)cc1F [FLOXURIDINE] | 18.5 | 17.8 |  | 24.5 | 12.8 | 37.9 |  |  | 5.65 | 22.8 |  |
| 357 | COc1ccc([C@@H](C)NC(c2c(F)c(F)c(F)c(F)c2F)P(=O)(OC)OC)cc1 (stereo not given in full) | 45.1 | 53.1 | 31.4 | 13.7 | 4.36 | 35.5 | 6.93 | 52.4 | 79.2 | 75.1 | 2.17 |
|  | COc1ccc([C@@H](C)NC(c2c(F)cc(F)cc2F)P(=O)(OC)OC)cc1 (stereo not given in full) | 22.6 | 47.8 | 70 | 78.6 | 4.2 | 13.2 | 14.6 | 17.5 | 27 | 33.2 | 5.86 |
|  | CCOP(=O)(OCC)C(N[C@@H](C)C(C)(C)C)c1ccc(F)cc1F (stereo not given in full) | 10.5 | 48.6 | 35.5 | 48.3 | 110 | 18.4 | 27.4 | 4.46 | 5.58 | 18 | 107 |
